These are literature values, as cited in publication PMC8086892 (Peptide science (Hoboken, N.J.), 2020).

The conditions of data set [1]: ref Orivel et al. [27].
For data set [2] the following is noted: ref Orivel et al. [27]. The source holds these as a separate data set.

In the case of Ponericin L2, in data set [1], the Hemolytic activity result is “no detectable hemolytic activity”. Also, the Antimicrobial activity entry in data set [2] was “broad spectrum antimicrobial activity”.
